Entries after “also recorded” stand apart in the source; their conditions may differ.

The values that follow come from patent publication US11369579B2 (SyneuRx International (Taiwan) Corp., priority 2016, dated 2022).

The nature of series [1]: Stability test under high humidity condition (>90% RH, 5 days), analyzed by XRPD. The settings on record: 500 mg.
Series [2] can be described thus: Slurry conversion of polymorphic forms / thermodynamic stability comparison.

Regarding `O=C([O-])c1ccccc1.[Na+]` [sodium benzoate from Formosa Laboratories], the “Change of XRPD pattern” value in series [1] is reported as “significant changes; also recorded: changes in XRPD”. Moreover, the “Thermodynamic stability among forms of sodium benzoate” value in series [2] is “less thermodynamically stable”.

In the case of `O=C([O-])c1ccccc1.[Na+]` [sodium benzoate from Merck, sodium benzoate], the “Change of XRPD pattern” value in series [1] is “significant changes; also recorded: changes in XRPD”. Moreover, the “Thermodynamic stability among forms of sodium benzoate” value in series [2] is given as “less thermodynamically stable”.
